The numbers were not newly measured in patent US20230066280A1, “DRUG ELUTING BIOMATERIALS” (UCL BUSINESS LTD, priority 2020, published 2023), which cites them from elsewhere.

The structures appear in SMILES notation.

One data set relates to Rho. Particulars: SY5YAPP, HEK 293 and PC12 cells (ref 30).

Consider `CC(C)Cc1ccc(C(C)C(=O)O)cc1` (stereo not drawn) [ibuprofen], for which the “initial loaded drug released within 24 hours” value (ibuprofen from EVA, previous study (ref 24)) is on record as 50%. In addition, the “release rate of ibuprofen from MSN” value (mesoporous silica nanoparticles, previous studies (ref 20)) is listed as 96.3%.

Turning to `CSc1ccc(/C=C2/C(C)=C(CC(=O)O)c3cc(F)ccc32)cc1` [sulindac sulfide], the “levels of active Rho-GTP” value with Rho is recorded as “reduced”.
